# Source: patent US20150094264A1, “USE OF OBESTATIN FOR MUSCLE REGENERATION” (UNIVERSIDADE DE SANTIAGO DE COMPOSTELA, priority 2012, published 2015)
# Tests used:
# [1] = tested on: skeletal muscle tissue (gastrocnemius and soleus) in male rats; test: Chronic administration by osmotic mini-pumps: myogenic markers in gastrocnemius and soleus of rat, immunoblot; type: in vivo, Sprague-Dawley rats; settings: 300 nmol/kg body weight/24 h s.c. infusion, 72 h
# Experimental: FIG. 7. Effect of the chronic administration of obestatin on the myogenic markers in the gastrocnemius and soleus of rat (animal model). Effect of the administration during 72 hours of obestatin (300 nmol/kg/24 h; 72 h) by the implantation of mini-pumps on early and later markers of myogenesis in skeletal muscle tissue (gastrocnemius and soleus) in male rats. A: Western-blot analysis. First column: control; second column: treatment with obestatin. B: Protein levels in gastrocnemius. White column: control; grey column: treatment with obestatin. The protein levels are expressed as % of the control obtained from the group of animals with implantation of mini-pumps with saline (n=10 per group; mean±standard error; *, p<0.05). C: Protein levels in soleus. White column: control; grey column: treatment with obestatin. The protein levels are expressed as % of the control obtained from the group of animals with implantation of mini-pumps with saline (n=10 per group; mean±standard error; *, p<0.05).
# The tissue or cell samples were directly lysed in RIPA buffer [Tris-HCl (pH 7.2), 50 mM; NaCl, 150 mM; EDTA, 1 mM; NP-40, 1% (v/v); Sodium deoxycholate, 0.25% (w/v); protease inhibitors (Sigma); phosphatise inhibitors (Sigma)]. The lysates were clarified by centrifugation (14,000×g during 15 min at 4° C.) and the protein concentration was quantified using QuantiPro™ BCA assay kit (Sigma). For immunoblot, equal amounts of protein were loaded which were fractionated in SOS-PAGE gels and transferred to nitrocellulose membranes. The immunoreactive bands were detected by chemiluminescence (Pierce ECL Western Blotting Substrate; Thermo Scientific, Ill., USA).
# Two animal models were used for the in vivo assays: Sprague-Dawley rats and Swiss mice. The Sprague-Dawley (250 g; n=20) rats were maintained in 12 h light-darkness cycled with free access to standard diet and water. The Alzet® mini-pumps (model 1003D) were subcutaneously implanted. The animals were assigned to one of the two experimental groups (n=10/group): 1) control group (mini-pumps with saline); and, 2) obestatin group (mini-pumps implanted containing 300 nmol/kg weight/24 h). These mini-pumps allow a diffusion flow of 1 microL/h. After 72 h, the rats were sacrificed by cervical dislocation under anaesthetic treatment, and soleus and gastrocnemius tissues were extracted for immunoblot analysis.
# Based on the short mean life of obestatin in plasma, osmotic mini-pumps were used for the in vivo administration of this peptide. Two groups of male rats were worked with: a group of 10 male rats received the continuous subcutaneous infusion of obestatin during 72 h (300 nmol/kg body weight/24 h); and another group of 10 rats received the equivalent volume of PBS during 72 h. The animals were sacrificed and the gastrocnemius and soleus muscles were removed and processed to analyse the expression of key factors of muscular differentiation by immunoblot. […] The increase in both types of muscle of the family of regulatory factors of different stages in myogenesis show a clear muscle regenerative capacity for obestatin.
# [2] = tested on: damaged tibialis anterior of mouse; test: Blood vessels (isolectin positive) per myofiber in damaged tibialis anterior of mouse; type: in vivo, Swiss mice; settings: 300 nmol/kg/24 h; 10 days after induction of muscle damage
# Experimental: FIG. 13. Quantification of the blood vessels per myofiber in the tibialis anterior 10 days after the induction of muscle damage and exogenous treatment of obestatin (300 nmol/kg/24 h) or vehicle (PBS). Quantification of the number of blood vessels (immunofluorescence: positivity to isolectin) per myofiber (mean±standard error; *, p<0.005) of sections of the tibialis anterior treated with obestatin (300 nmol/kg/24 h) or PBS (control) 10 days after inducing the damage.
# (§1) For the tissue immunofluorescence analysis, frozen sections were obtained which were fixed using a buffered solution of PBS-paraformaldehyde during 15 min, washed, permeabilized and blocked with PBT during 30 min, and later incubated with the corresponding primary antibody (anti-eMHC, anti-laminin antibody) diluted in PBT (1:50) during 12 h at 4° C. After three washes with PBS, the tissue sections were incubated with secondary antibody in PBT (1:1000) during 45 min at 37° C. […] The digital images of the cell culture were acquired with a Leica TCS-SP2 confocal microscope.
# (§2) The mice (30 g; n=50) were maintained in 12 h light-darkness cycled with free access to standard diet and water. To induce the muscle damage, the tibialis anterior muscle (TA) was extracted under anaesthesia and subjected to three cycles of damage due to cold contact applying along the length of the muscle a metal bar cooled in liquid nitrogen. […]
# [3] = tested on: damaged tibialis anterior of mouse; test: Immunofluorescence analysis of eMHC expression in damaged tibialis anterior of mouse; type: in vivo, Swiss mice; settings: 300 nmol/kg weight; 96 h
# Experimental: FIG. 11. Immufluorescence analysis of the effect of the exogenous administration of obestatin (96 h) on eMHC expression in the damaged tibialis anterior of mouse (animal model). Representative images of eMHC expression by immunofluorescence of sections of the tibialis anterior treated with obestatin (300 nmol/kg/24 h) or PBS (control) 96 h after inducing the damage. The upper panels correspond to staining with anti-eMHC antibody and the lower panels to staining with DAPI.
# as §1, §2
# [4] = tested on: tibialis anterior muscle in mice where the sciatic nerve has been denervated; test: Weight reduction of tibialis anterior after denervation of the sciatic nerve (model of muscular atrophy); type: in vivo, Swiss mice; settings: 300 nmol/kg weight local, 14 days
# Experimental: FIG. 14. Analysis of the weight reduction of the tibialis anterior muscle in mice where the sciatic nerve has been denervated (model of muscular atrophy) under the exogenous administration of obestatin or vehicle (PBS). Swiss mice were used whereon the sciatic nerve was denervated in one of the limbs, using the other as control. The effect of the administration of obestatin (300 nmol/kg weight) or the vehicle (PBS; control) was assessed in the tibialis anterior muscle after 14 days. The data are expressed as % of weight reduction with respect to the control without denervation (n=5 per group; mean±standard error; *, p<0.005).
# To study muscular atrophy, the sciatic nerve was denervated using Swiss mice. The denervation of the sciatic nerve was performed under anaesthesia, making an incision in the mid thigh on the lateral face of the rear right limb, separating the muscles and raising the sciatic nerve with surgical forceps. A portion of the nerve was isolated removing a fragment thereof. Finally the incision was closed. These animals were locally administered an injection of obestatin (300 nmol/kg weight) or the corresponding vehicle (PBS; control) in intervals of 24 h during 14 days.
substance,measurement,setting,value
obestatin,MHC protein levels in relation to control rats,[1]; gastrocnemius and soleus,significantly increased
same,Myf5 protein levels in relation to control rats,[1]; gastrocnemius and soleus,significantly increased
same,Myf6 protein levels in relation to control rats,[1]; gastrocnemius and soleus,significantly increased
same,MyoD protein levels in relation to control rats,[1]; gastrocnemius and soleus,significantly increased
same,Pax-7 protein levels in relation to control rats,[1]; gastrocnemius and soleus,significantly increased
same,myogenin protein levels in relation to control rats,[1]; gastrocnemius and soleus,significantly increased
same,Six-1 protein levels in relation to control rats,[1]; gastrocnemius,no effect at all
same,Six-1 protein levels in relation to control rats,[1]; soleus,significant increased
same,capillary density (isolectin-positive blood vessels per myofiber) in relation to vehicle (PBS),[2],significant increase
same,eMHC expression by immunofluorescence in relation to controls,[3],significantly increases
same,loss of tibialis anterior muscle mass (weight) in relation to vehicle (PBS) controls,[4],reduces the loss of muscle mass
